# Results reported in paper PMC8695591 (RSC Advances, 2021).
# Target: cathepsin B (Homo sapiens, UniProt P07858)
# Test: Cathepsin B inhibition assay
# Assay type: biochemical
compound,measurement,value
CC(=O)N[C@@H](CC(C)C)C(=O)N[C@@H](CC(C)C)C(=O)N[C@H](C=O)CCCNC(=N)N [Leupeptin],IC50,7.5 µM
